According to patent US6930104B2, “Heterocyclic derivatives” (Takeda Chemical Industries, Ltd., priority 2001, dated 2005):

| Structure (SMILES) | melting point |
| --- | --- |
| COc1ccc(C(=O)N2c3ccccc3C(N3CCCc4cc(OCc5ccccc5)ccc43)CC2C)cc1OC (stereo not drawn) (hydrate or solvate) [Example 101, 2,4-cis-4-(6-Benzyloxy-1,2,3,4-tetrahydroquinolin-1-yl)-1-(3,4-dimethoxybenzoyl)-2-methyl-1,2,3,4-tetrahydroquinoline] | 164 to 165 °C |
| CCOc1ccc(C(=O)N2c3ccccc3C(n3c4ccccc4c4ccccc43)CC2C)cc1OC (stereo not drawn) (hydrate or solvate) [Example 143, 2,4-cis-4-(9H-9-Carbazolyl)-1-(4-ethoxy-3-methoxybenzoyl)-2-methyl-1,2,3,4-tetrahydroquinoline] | 214 to 215 °C |
| CCOc1ccc(C(=O)N2c3ccccc3C(n3c4ccccc4c4ccccc43)CC2C)cc1OCC (stereo not drawn) (hydrate or solvate) [Example 144, 2,4-cis-4-(9H-9-Carbazolyl)-1-(3,4-diethoxybenzoyl)-2-methyl-1,2,3,4-tetrahydroquinoline] | 240 to 241 °C |
| CCCC1CC(n2c3ccccc3c3ccccc32)c2ccccc2N1C(=O)c1ccc(OCC)c(OCC)c1 (stereo not drawn) (hydrate or solvate) [Example 147, 2,4-cis-4-(9H-9-Carbazolyl)-1-(3,4-diethoxybenzoyl)-2-propyl-1,2,3,4-tetrahydroquinoline] | 220 °C |
| COc1ccc(C(=O)N2c3ccccc3C(n3c4ccccc4c4ccccc43)C(O)C2C)cc1OC (stereo not shown) (hydrate or solvate) [Example 162, 4-(9H-9-Carbazolyl)-1-(3,4-dimethoxybenzoyl)-3-hydroxy-2-methyl-1,2,3,4-tetrahydroquinoline] | 194 to 195 °C |
| COc1ccc(C(=O)N2c3ccccc3C(N3CCCc4ccccc43)C(OC(C)=O)C2C)cc1OC (racemic) [Example 17, 2,3-trans-2,4-cis-3-Acetoxy-1-(3,4-dimethoxybenzoyl)-2-methyl-4-(1,2,3,4-tetrahydroquinolin-1-yl)-1,2,3,4-tetrahydroquinoline] | 130 to 131 °C |
| CCCCC1CC(n2c3ccccc3c3ccccc32)c2ccccc2N1C(=O)c1ccc(OC)c(OC)c1 (stereo not drawn) [Example 40, 2,4-cis-2-Butyl-4-(9H-9-carbazolyl)-1-(3,4-dimethoxybenzoyl)-1,2,3,4-tetrahydroquinoline] | 213 °C |
| COc1ccc(C(=O)N2c3ccccc3C(n3c4ccccc4c4ccccc43)CC2CC(C)C)cc1OC (stereo not drawn) [Example 41, 2,4-cis-4-(9H-9-Carbazolyl)-1-(3,4-dimethoxybenzoyl)-2-isobutyl-1,2,3,4-tetrahydroquinoline] | 191 to 193 °C |
| COc1ccc(C(=O)N2c3ccccc3C(n3c4ccccc4c4ccccc43)CC2COCc2ccccc2)cc1OC (stereo not shown) [Example 43, 2-[(Benzyloxy)methyl]-4-(9H-9-carbazolyl)-1-(3,4-dimethoxybenzoyl)-1,2,3,4-tetrahydroquinoline] | 203 to 204 °C |
| CCCCC1C=C(n2c3ccccc3c3ccccc32)c2ccccc2N1C(=O)c1ccc(OC)c(OC)c1 (stereo not shown) [Example 59, 2-Butyl-4-(9H-9-carbazolyl)-1-(3,4-dimethoxybenzoyl)-1,2-dihydroquinoline] | 174 to 175 °C |
| COc1ccc(C(=O)N2c3ccccc3C(N3CCCc4cc(C(C)C)ccc43)C(O)C2C)cc1OC (stereo not drawn) [Example 84, 2,3-trans-2,4-cis-1-(3,4-Dimethoxybenzoyl)-3-hydroxy-4-(6-isopropyl-1,2,3,4-tetrahydroquinolin-1-yl)-2-methyl-1,2,3,4-tetrahydroquinoline] | 165 to 166 °C |
| COc1ccc(C(=O)N2c3ccccc3C(N3CCCc4cc(C(C)C)ccc43)CC2C)cc1OC (stereo not drawn) [Example 85, 2,4-cis-4-(6-Isopropyl-1,2,3,4-tetrahydroquinolin-1-yl)-1-(3,4-dimethoxybenzoyl)-2-methyl-1,2,3,4-tetrahydroquinoline] | 187 to 188 °C |
| COc1ccc(C(=O)N2c3ccccc3C(n3c4ccccc4c4ccccc43)CC2CCCc2ccccc2)cc1OC (stereo not drawn) [Example 116, 9-[2,4-cis-1-(3,4-Dimethoxybenzoyl)-2-(3phenylpropyl)-1,2,3,4-tetrahydroquinolin-4-yl]-9H-carbazole] | 225 to 226 °C |
| COc1ccc(C(=O)N2c3ccccc3C(n3c4ccccc4c4ccccc43)CC2CCCO)cc1OC (stereo not drawn) [Example 118, 3-[2,4-cis-4-(9H-9-Carbazolyl)-1-(3,4-dimethoxybenzoyl)-1,2,3,4-tetrahydroquinolin-2-yl]-1-propanol] | 192 to 194 °C |
| CCCC(=O)NCCCC1CC(n2c3ccccc3c3ccccc32)c2ccccc2N1C(=O)c1ccc(OC)c(OC)c1 (stereo not drawn) [Example 122, N-[3-[2,4-cis-4-(9H-9-Carbazolyl)-1-(3,4-dimethoxybenzoyl)-1,2,3,4-tetrahydroquinolin-2-yl]propyl]butanamide] | 199 to 201 °C |
| COc1ccc(C(=O)N2c3ccccc3C(n3c4ccccc4c4ccccc43)CC2CCCNC(=O)c2ccccc2)cc1OC (stereo not drawn) [Example 124, N-[3-[2,4-cis-4-(9H-9-Carbazolyl)-1-(3,4-dimethoxybenzoyl)-1,2,3,4-tetrahydroquinolin-2-yl]propyl]-benzamide] | 236 to 237 °C |
| CCCC1CC(n2c3ccccc3c3ccccc32)c2ccccc2N1C(=O)c1ccc(OCC)c(OC)c1 (stereo not drawn) [Example 146, 2,4-cis-4-(9H-9-Carbazolyl)-1-(4-ethoxy-3-methoxybenzoyl)-2-propyl-1,2,3,4-tetrahydroquinoline] | 221 to 222 °C |
| CCCCC1CC(n2c3ccccc3c3ccccc32)c2ccccc2N1C(=O)c1ccc(OCC)c(OC)c1 (stereo not drawn) [Example 148, 2,4-cis-9-[2-Butyl-1-(4-ethoxy-3-methoxybenzoyl)-1,2,3,4-tetrahydro-4-quinolinyl]-9H-carbazole] | 231 to 232 °C |
| CCCCC1CC(n2c3ccccc3c3ccccc32)c2ccccc2N1C(=O)c1ccc(OCC)c(OCC)c1 (stereo not drawn) [Example 149, 2,4-cis-9-[2-Butyl-1-(3,4-diethoxybenzoyl)-1,2,3,4-tetrahydro-4-quinolinyl]-9H-carbazole] | 232 to 233 °C |
| CCC1CC(n2c3ccccc3c3ccccc32)c2ccccc2N1C(=O)c1ccc(SC)c(OC)c1 (stereo not drawn) [Example 150, 2,4-cis-9-[2-Ethyl-1-(3-methoxy-4-methylthiobenzoyl)-1,2,3,4-tetrahydro-4-quinolinyl]-9H-carbazole] | 210 to 211 °C |
| CCCCC1CC(n2c3ccccc3c3ccccc32)c2ccccc2N1C(=O)c1ccc(SC)c(OC)c1 (stereo not drawn) [Example 151, 2,4-cis-9-[2-Butyl-1-(3-methoxy-4-methylthiobenzoyl)-1,2,3,4-tetrahydro-4-quinolinyl]-9H-carbazole] | 230 to 231 °C |

Results, then the compound that gave them:

| melting point | Structure (SMILES) |
| --- | --- |
| 155 to 157 °C | COc1ccc(C(=O)N2CCC(N3CC4(CCN(Cc5ccccc5)CC4)c4ccccc43)c3ccccc32)cc1OC (stereo not shown) |
| 140 to 142 °C | CCOc1ccc(C(=O)N2c3ccccc3C(N3CCCc4ccccc43)CC2C)cc1OC (stereo not shown) (hydrate or solvate) [Example 103, 1-(4-Ethoxy-3-methoxybenzoyl)-2-methyl-4-(1,2,3,4-tetrahydroquinolin-1-yl)-1,2,3,4-tetrahydroquinoline] |
| 178 to 180 °C | COc1ccc(C(=O)N2c3ccccc3C(N3CCSc4ccccc43)CC2C)cc1OC (racemic) [Example 20, 2,4-cis-4-(3,4-Dihydro-2H-1,4-benzothiazin-4-yl)-1-(3,4-dimethoxybenzoyl)-2-methyl-1,2,3,4-tetrahydroquinoline] |
| 121 to 123 °C | COc1ccc(C(=O)N2CCC(N3CCc4ccccc43)c3ccccc32)cc1OC (stereo not shown) [Example 2, 4-(2,3-Dihydro-1H-indol-1-yl)-1-(3,4-dimethoxybenzoyl)-1,2,3,4-tetrahydroquinoline] |
| 147 to 148 °C | COc1ccc(C(=O)N2c3ccccc3C(N3CCc4ccccc43)CC2C)cc1OC (stereo not shown) [Example 61, 4-(2,3-Dihydro-1H-indol-1-yl)-1-(3,4-dimethoxybenzoyl)-2-methyl-1,2,3,4-tetrahydroquinoline] |
| 113 to 114 °C | COc1ccc(C(=O)N2c3ccccc3C(N3CCSc4ccccc43)CC2C)cc1OC (stereo not shown) [Example 72, 4-[1-(3,4-Dimethoxybenzoyl)-2-methyl-1,2,3,4-tetrahydroquinolin-4-yl]-3,4-dihydro-2H-1,4-benzothiazine] |
| 128 to 129 °C | COc1ccc(C(=O)N2c3ccccc3C(N3CCc4ccccc4C3)CC2C)cc1OC (stereo not shown) [Example 73, 1-(3,4-Dimethoxybenzoyl)-2-methyl-4-(1,2,3,4-tetrahydroisoquinolin-2-yl)-1,2,3,4-tetrahydroquinoline] |
| 176 to 177 °C | CCCC1CC(N2CCCc3ccccc32)c2ccccc2N1C(=O)c1ccc(OC)c(OC)c1 (stereo not drawn) [Example 75, 2,4-cis-1-(3,4-Dimethoxybenzoyl)-2-propyl-4-(1,2,3,4-tetrahydroquinolin-1-yl)-1,2,3,4-tetrahydroquinoline] |
| 200 to 202 °C | CCCCC1C(O)C(N2CCCc3ccccc32)c2ccccc2N1C(=O)c1ccc(OC)c(OC)c1 (stereo not drawn) [Example 76, 2,3-trans-2,4-cis-2-Butyl-1-(3,4-dimethoxybenzoyl)-3-hydroxy-4-(1,2,3,4-tetrahydroquinolin-1-yl)-1,2,3,4-tetrahydroquinoline] |
| 159 to 160 °C | CCCCC1CC(N2CCCc3ccccc32)c2ccccc2N1C(=O)c1ccc(OC)c(OC)c1 (stereo not drawn) [Example 77, 2,4-cis-2-Butyl-1-(3,4-dimethoxybenzoyl)-4-(1,2,3,4-tetrahydroquinolin-1-yl)-1,2,3,4-tetrahydroquinoline] |
| 197 to 198 °C | COc1ccc(C(=O)N2c3ccccc3C(N3CCCc4ccc(C)cc43)CC2C)cc1OC (stereo not drawn) [Example 81, 2,4-cis-1-(3,4-Dimethoxybenzoyl)-2-methyl-4-(7-methyl-1,2,3,4-tetrahydroquinolin-1-yl)-1,2,3,4-tetrahydroquinoline] |
| 184 to 185 °C | COc1ccc(C(=O)N2c3ccccc3C(N3CCCc4cc(C)ccc43)CC2C)cc1OC (stereo not drawn) [Example 83, 2,4-cis-1-(3,4-Dimethoxybenzoyl)-2-methyl-4-(6-methyl-1,2,3,4-tetrahydroquinolin-1-yl)-1,2,3,4-tetrahydroquinoline] |
| 157 to 158 °C | CCOc1ccc(C(=O)N2c3ccccc3C(N3CCCc4ccccc43)CC2C)cc1OCC (stereo not shown) [Example 102, 1-(3,4-Diethoxybenzoyl)-2-methyl-4-(1,2,3,4-tetrahydroquinolin-1-yl)-1,2,3,4-tetrahydroquinoline] |
